In BindingDB's records for PubMed 35247754 (China Pharmaceutical University, 2022):

What was measured:
[1] = biological target: T1, Sentrin-specific protease 1 (Homo sapiens, UniProt Q9P0U3); assay: Inhibition of human SENP1 using AMC-tagged SUMO1 as substrate incubated for 10 mins by fluorescence based analysis
T1 sequence (Q9P0U3 whole entry): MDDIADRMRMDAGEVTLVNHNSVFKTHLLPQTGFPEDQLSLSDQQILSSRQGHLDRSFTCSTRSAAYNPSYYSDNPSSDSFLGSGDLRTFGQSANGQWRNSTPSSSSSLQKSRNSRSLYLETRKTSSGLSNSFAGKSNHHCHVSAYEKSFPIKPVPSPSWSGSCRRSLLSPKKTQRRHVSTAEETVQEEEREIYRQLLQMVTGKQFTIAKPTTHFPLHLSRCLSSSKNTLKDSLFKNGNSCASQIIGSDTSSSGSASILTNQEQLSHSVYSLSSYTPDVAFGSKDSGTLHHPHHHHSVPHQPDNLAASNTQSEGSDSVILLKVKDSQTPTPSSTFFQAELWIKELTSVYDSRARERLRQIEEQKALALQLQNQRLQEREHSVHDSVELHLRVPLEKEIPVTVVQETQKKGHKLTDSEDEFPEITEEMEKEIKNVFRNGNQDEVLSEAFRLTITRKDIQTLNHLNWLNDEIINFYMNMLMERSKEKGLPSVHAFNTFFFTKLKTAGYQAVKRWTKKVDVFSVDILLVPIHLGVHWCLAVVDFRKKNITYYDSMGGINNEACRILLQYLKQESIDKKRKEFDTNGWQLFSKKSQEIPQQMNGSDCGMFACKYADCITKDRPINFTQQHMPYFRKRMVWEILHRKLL

[2] = biological target: T2, Sentrin-specific protease 2 (Homo sapiens, UniProt Q9HC62); assay: Inhibition of human SENP2 using AMC-tagged SUMO1 as substrate incubated for 10 mins by fluorescence based analysis
T2 sequence (Q9HC62 whole entry): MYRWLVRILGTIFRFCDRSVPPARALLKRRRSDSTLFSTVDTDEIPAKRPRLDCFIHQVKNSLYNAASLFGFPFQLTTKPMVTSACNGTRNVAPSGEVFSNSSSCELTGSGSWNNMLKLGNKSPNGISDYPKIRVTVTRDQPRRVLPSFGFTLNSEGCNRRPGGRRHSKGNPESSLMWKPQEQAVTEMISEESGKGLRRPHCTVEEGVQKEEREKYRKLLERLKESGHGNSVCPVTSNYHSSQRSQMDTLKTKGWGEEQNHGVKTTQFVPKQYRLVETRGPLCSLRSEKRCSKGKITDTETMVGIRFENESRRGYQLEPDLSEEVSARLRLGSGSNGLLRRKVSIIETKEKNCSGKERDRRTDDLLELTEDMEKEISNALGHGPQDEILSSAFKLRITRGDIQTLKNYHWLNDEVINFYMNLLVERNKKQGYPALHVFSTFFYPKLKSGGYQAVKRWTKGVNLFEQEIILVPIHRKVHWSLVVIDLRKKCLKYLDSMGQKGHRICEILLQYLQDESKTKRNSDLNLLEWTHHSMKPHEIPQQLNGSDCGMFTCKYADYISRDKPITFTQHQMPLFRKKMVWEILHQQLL

[3] = biological target: T3, Sentrin-specific protease 6 (Homo sapiens, UniProt Q9GZR1); assay: Inhibition of human SENP6 using AMC-tagged SUMO1 as substrate incubated for 10 mins by fluorescence based analysis
T3 sequence (Q9GZR1 whole entry): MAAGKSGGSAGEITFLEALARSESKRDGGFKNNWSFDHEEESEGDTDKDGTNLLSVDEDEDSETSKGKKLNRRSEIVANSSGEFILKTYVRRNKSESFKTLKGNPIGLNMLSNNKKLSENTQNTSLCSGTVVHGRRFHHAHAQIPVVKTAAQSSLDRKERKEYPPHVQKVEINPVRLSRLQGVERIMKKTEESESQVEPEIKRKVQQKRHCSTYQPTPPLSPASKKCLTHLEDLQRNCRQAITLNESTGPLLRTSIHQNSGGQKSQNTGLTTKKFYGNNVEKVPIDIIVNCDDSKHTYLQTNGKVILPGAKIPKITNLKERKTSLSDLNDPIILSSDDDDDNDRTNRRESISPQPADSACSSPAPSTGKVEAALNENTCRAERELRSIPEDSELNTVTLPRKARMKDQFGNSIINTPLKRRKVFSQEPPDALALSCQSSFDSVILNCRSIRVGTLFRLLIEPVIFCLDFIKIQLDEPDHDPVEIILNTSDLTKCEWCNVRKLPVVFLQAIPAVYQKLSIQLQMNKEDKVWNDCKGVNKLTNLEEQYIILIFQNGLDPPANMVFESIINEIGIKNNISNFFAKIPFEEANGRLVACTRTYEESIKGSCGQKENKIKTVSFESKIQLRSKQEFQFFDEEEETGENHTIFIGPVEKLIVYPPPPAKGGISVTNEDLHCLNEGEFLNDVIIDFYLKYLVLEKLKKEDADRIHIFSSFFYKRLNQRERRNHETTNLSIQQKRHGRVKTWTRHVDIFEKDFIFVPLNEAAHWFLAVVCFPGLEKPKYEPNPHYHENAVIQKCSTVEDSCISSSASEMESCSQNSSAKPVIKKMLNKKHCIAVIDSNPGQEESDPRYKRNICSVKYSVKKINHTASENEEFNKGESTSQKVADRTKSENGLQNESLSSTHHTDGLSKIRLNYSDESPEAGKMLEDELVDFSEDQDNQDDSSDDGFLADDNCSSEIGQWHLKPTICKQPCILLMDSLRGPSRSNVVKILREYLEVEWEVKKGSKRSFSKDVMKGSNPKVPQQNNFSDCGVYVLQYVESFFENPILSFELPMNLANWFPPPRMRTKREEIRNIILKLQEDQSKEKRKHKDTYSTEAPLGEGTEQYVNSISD

COC1=C(N)C(=O)c2nc(-c3nc(C(=O)O)c(C)c(-c4ccc(OC)c(OC)c4O)c3N)ccc2C1=O [CHEBI:9287]
IC50 [1]: 0.52 µM | IC50 [2]: 6.9 µM | IC50 [3]: 5.2 µM
